Test systems include 786-0 renal; HOP-62 NSCLC; OVCAR-5 ovarian; SK-MEL-5 melanoma; SNB-19 CNS; HOP-92 NSCLC; K-562 leukemia; U251 CNS; SF-539 CNS; SF-268 CNS.
Common to all, as to test: growth of human tumour cells (NCI), 48 h

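Cultured in 96-well plates, cells were exposed to test compound for 48 hours across five concentrations. Here, GI50 denotes the concentration required for 50% inhibition of growth. Definition used: TGI = concentration required for complete inhibition of growth.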

Turning to `CC(=O)OC1CCC2(C)C(CCC3C2CC(=O)C2(C)C3CC(N3CC3)C2C(C)=O)C1` (centres undefined), the TGI is 64.4 µM with 786-0 renal; more than 100 µM in the assay on HOP-62 NSCLC; more than 100 µM in the assay with OVCAR-5 ovarian; 32.3 µM in the assay with SK-MEL-5 melanoma; 63.4 µM in the assay on SNB-19 CNS; 43.1 µM in the assay on HOP-92 NSCLC. Besides, the TGI in the assay on K-562 leukemia turned out to be 89.7 µM; in the assay on U251 CNS it was 37.8 µM; in the assay on SF-539 CNS it was 37.3 µM; in the assay with SF-268 CNS it was 27.1 µM.
Consider `CC(=O)/C(=C/c1ccccc1)C(=O)CC(C)C`, for which the GI50 in the assay on 786-0 renal was 17.5 µM; in the assay with HOP-62 NSCLC, 26.8 µM; in the assay with OVCAR-5 ovarian, 17.7 µM; in the assay with SK-MEL-5 melanoma, 13.5 µM; with SNB-19 CNS, 12.7 µM; in the assay on HOP-92 NSCLC it was 32.7 µM. Further, the GI50 was 3.77 µM in the assay on K-562 leukemia, 4.86 µM in the assay on U251 CNS, 23.4 µM in the assay with SF-539 CNS and 14.3 µM in the assay with SF-268 CNS. The TGI in the assay on 786-0 renal was 32.5 µM; with HOP-62 NSCLC it was 71.8 µM; in the assay on OVCAR-5 ovarian it was 41.6 µM; with SK-MEL-5 melanoma, 26.9 µM; in the assay with SNB-19 CNS it was 26.2 µM; in the assay on HOP-92 NSCLC, more than 100 µM. The TGI in the assay on K-562 leukemia was more than 100 µM; in the assay with U251 CNS, 17.7 µM; in the assay on SF-539 CNS it was 49.4 µM; in the assay on SF-268 CNS it was 33 µM.
As to `Oc1ccc(Nc2ccc3ccccc3c2)cc1`, the GI50 with 786-0 renal is 3.78 µM; with HOP-62 NSCLC it was 10.4 µM; in the assay with OVCAR-5 ovarian it was 22.7 µM; in the assay with SK-MEL-5 melanoma it was 3.11 µM; in the assay on SNB-19 CNS it was 20.4 µM; in the assay on HOP-92 NSCLC it was 10.2 µM. In addition, the GI50 with K-562 leukemia was 2.96 µM; in the assay with U251 CNS, 4.83 µM; in the assay with SF-539 CNS, 3.38 µM; in the assay with SF-268 CNS, 4.94 µM. For the same molecule, the TGI is 15.5 µM in the assay on 786-0 renal; 41.5 µM in the assay on HOP-62 NSCLC; 78.3 µM in the assay on OVCAR-5 ovarian; 11.2 µM with SK-MEL-5 melanoma; more than 100 µM in the assay on SNB-19 CNS; 32.6 µM in the assay with HOP-92 NSCLC. The TGI turned out to be 15.9 µM with K-562 leukemia, 23.9 µM in the assay with U251 CNS, 18.6 µM in the assay on SF-539 CNS and 29.4 µM in the assay on SF-268 CNS.
With `CC(C)N1CCN(c2ccncc2S(=O)(=O)N2CCCCC2)CC1`, the TGI with 786-0 renal, with HOP-62 NSCLC, in the assay with OVCAR-5 ovarian, with SK-MEL-5 melanoma, with SNB-19 CNS and in the assay with HOP-92 NSCLC was more than 100 µM in each case. In addition, the TGI in the assay on K-562 leukemia, with U251 CNS, in the assay on SF-539 CNS and in the assay on SF-268 CNS was more than 100 µM throughout.
Regarding `O=C(O)C[C@@H](Cl)[C@H](NC(=O)OCc1ccccc1)C(=O)O`, the TGI with 786-0 renal, in the assay on HOP-62 NSCLC, with OVCAR-5 ovarian, in the assay on SK-MEL-5 melanoma, with SNB-19 CNS and in the assay on HOP-92 NSCLC was more than 100 µM in each case. Moreover, the TGI in the assay on K-562 leukemia, in the assay with U251 CNS, in the assay with SF-539 CNS and in the assay on SF-268 CNS was more than 100 µM throughout.
Turning to `Cc1c(-c2ccc(C3CCCCC3)cc2)nc2ccc(F)cc2c1C(=O)O`, the GI50 was 0.235 µM in the assay on 786-0 renal; more than 100 µM in the assay with OVCAR-5 ovarian; 0.0799 µM in the assay on SK-MEL-5 melanoma; 0.2 µM in the assay on SNB-19 CNS; 15 µM with HOP-92 NSCLC; 0.0574 µM with K-562 leukemia. The GI50 in the assay on U251 CNS was 0.0588 µM; in the assay with SF-539 CNS it was 0.0701 µM; in the assay on SF-268 CNS, 0.405 µM. The TGI in the assay on 786-0 renal was more than 100 µM; in the assay on HOP-62 NSCLC it was more than 100 µM; in the assay on OVCAR-5 ovarian it was more than 100 µM; with SK-MEL-5 melanoma, more than 100 µM; with SNB-19 CNS it was more than 100 µM; with HOP-92 NSCLC, 97.5 µM. The TGI in the assay on K-562 leukemia is more than 100 µM; with U251 CNS it was more than 100 µM; with SF-539 CNS it was more than 70 µM; with SF-268 CNS, more than 100 µM.
`CCN1CCC(Nc2ccnc3cc(Cl)ccc23)CC1`: the GI50 in the assay on 786-0 renal is 32.4 µM; in the assay with HOP-62 NSCLC, 21.9 µM; in the assay on OVCAR-5 ovarian, 34.2 µM; in the assay with SK-MEL-5 melanoma, 16 µM; with SNB-19 CNS, 79.1 µM; in the assay with HOP-92 NSCLC, 45.3 µM. Further, the GI50 with K-562 leukemia is 4.83 µM; in the assay on U251 CNS, 30.5 µM; with SF-539 CNS it was 15.8 µM; with SF-268 CNS, 23.6 µM. The TGI in the assay with 786-0 renal was more than 100 µM; in the assay with HOP-62 NSCLC, more than 100 µM; in the assay with OVCAR-5 ovarian it was more than 100 µM; with SK-MEL-5 melanoma, 30.2 µM; with SNB-19 CNS, more than 100 µM; in the assay on HOP-92 NSCLC, more than 100 µM. The TGI with K-562 leukemia is more than 100 µM; in the assay on U251 CNS, more than 100 µM; in the assay with SF-539 CNS, 36 µM; in the assay on SF-268 CNS it was more than 100 µM.
Consider `C=C(CN1CCN(c2ccc(C(F)(F)F)cc2)CC1)c1ccc(C(=O)Nc2ccccc2N)cc1`, for which the GI50 is 2.85 µM with 786-0 renal; 8.38 µM in the assay on HOP-62 NSCLC; more than 100 µM in the assay with OVCAR-5 ovarian; 4.43 µM with SK-MEL-5 melanoma; 12.5 µM in the assay on SNB-19 CNS; 3.95 µM in the assay with HOP-92 NSCLC. Also, the GI50 is 0.302 µM with K-562 leukemia, 6.25 µM in the assay with U251 CNS, 8.15 µM in the assay with SF-539 CNS and 6.78 µM with SF-268 CNS. For the same molecule, the TGI in the assay on 786-0 renal is more than 100 µM; in the assay on HOP-62 NSCLC it was more than 45 µM; with OVCAR-5 ovarian, more than 100 µM; in the assay with SK-MEL-5 melanoma it was more than 100 µM; in the assay on SNB-19 CNS, 73.5 µM; in the assay on HOP-92 NSCLC it was 23.7 µM. In addition, the TGI in the assay on K-562 leukemia is more than 36.5 µM; in the assay on U251 CNS, 31 µM; with SF-539 CNS it was more than 100 µM; in the assay with SF-268 CNS, more than 100 µM.
`COc1cc2c3cc1Oc1c(OC)c(OC)cc4c1C(=NCC4)Cc1ccc(cc1)Oc1cc(ccc1O)C[C@H]3N(C)CC2`: the TGI was 22.8 µM in the assay on 786-0 renal; 44.7 µM in the assay with HOP-62 NSCLC; more than 100 µM in the assay with OVCAR-5 ovarian; 24.6 µM in the assay with SK-MEL-5 melanoma; 61.6 µM in the assay on SNB-19 CNS; 29.1 µM in the assay with HOP-92 NSCLC. Also, the TGI in the assay with K-562 leukemia is 74.1 µM; in the assay on U251 CNS, 45.2 µM; with SF-539 CNS, 27.9 µM; in the assay on SF-268 CNS, more than 100 µM.

Source of the values: PubChem BioAssay (NCI).
